In ChEMBL document CHEMBL1140768, “Constituents of Brazilian red propolis and their preferential cytotoxic activity against human pancreatic PANC-1 cancer cell line in nutrient-deprived condition” (2008):

system: PANC-1; assay: Cytotoxicity against human PANC1 cells in nutrient deprived medium after 24 hrs; type: functional

Row | Compound | CD100
1 | COc1cc(O)ccc1[C@H]1COc2cc(O)ccc2C1 | >100 µM
2 | O=C1c2ccc(O)cc2O[C@H](c2ccccc2)[C@H]1O | >100 µM
3 | O=C(c1ccc(O)cc1O)[C@@H](O)Cc1ccc(O)cc1 | >100 µM
4 | C=C[C@@H](c1ccccc1)c1cc(O)c(OC)cc1OC | >100 µM
5 | COc1ccc([C@H]2COc3cc(O)ccc3C2)c(O)c1 | >100 µM
6 | COc1ccc([C@H]2COc3cc(O)ccc3C2=O)c(O)c1 | >100 µM
7 | COc1ccc2c(c1O)O[C@@H]1c3ccc(O)cc3OC[C@H]21 | 50 µM
8 | COc1ccc2c(C)c(-c3ccc(O)cc3O)oc2c1 | 50 µM
9 | COc1ccc2c(c1)O[C@H]1c3ccc(O)c(O)c3OC[C@@H]21 | 25 µM
10 | COc1cc(O)ccc1C(=O)/C=C/c1ccc(O)cc1 | >100 µM
11 | COc1ccc([C@H]2COc3cc(O)ccc3C2=O)c(OC)c1O | >100 µM
12 | O=C1c2ccc(O)cc2OC1(O)Cc1ccc(O)cc1 (centres undefined) | >100 µM
13 | COc1cc2c(cc1O)O[C@H](c1ccccc1)[C@@H](O)C2=O | >100 µM
14 | COc1ccc([C@H]2COc3cc(OC)ccc3C2)c(O)c1 | 25 µM
15 | CCO[C@@]12COc3cc(O)ccc3[C@@H]1Oc1cc(OC)ccc12 | >100 µM
16 | O=C1C[C@@H](c2ccccc2)Oc2cc(O)c(O)c(O)c21 | >100 µM
17 | COc1cc2c(cc1O)O[C@H](c1ccccc1)CC2=O | 50 µM
18 | O=C1C[C@@H](c2ccccc2)Oc2cc(O)ccc21 | >100 µM
19 | COc1ccc(-c2coc3cc(O)cc(O)c3c2=O)c(O)c1 | >100 µM
20 | COc1ccc([C@H]2COc3cc(O)cc(O)c3C2=O)c(O)c1 | >100 µM
21 | COc1ccc2c(c1)O[C@H]1c3ccc(O)c(OC)c3OC[C@@H]21 | >100 µM
22 | COc1ccc2c(c1)O[C@@H]1c3ccc(O)cc3OC[C@H]21 | 50 µM

Row | Compound | CD100
23 | O=C(/C=C/c1ccccc1)c1ccc(O)cc1O [2',4'-DIHYDROXYCHALCONE] | >100 µM
24 | COc1ccc([C@H]2OC[C@H]3[C@@H]2CO[C@@H]3c2ccc(OC)c(OC)c2)cc1OC [(+)-EUDESMIN] | >100 µM
25 | COc1cc([C@@H]2OC[C@@H]3[C@H]2CO[C@H]3c2ccc(O)c(OC)c2)ccc1O [(+)-PINORESINOL] | >100 µM
26 | COc1c(O)cc2oc(-c3ccccc3)c(O)c(=O)c2c1O [ALNUSIN] | >100 µM
27 | COc1c(O)cc2c(c1O)C(=O)[C@H](O)[C@@H](c1ccccc1)O2 [ALNUSTINOL] | >100 µM
28 | COc1cc(C[C@H]2C(=O)OC[C@@H]2Cc2ccc(OC)c(OC)c2)ccc1O [ARCTIGENIN] | 1 µM
29 | COc1ccc(-c2coc3cc(O)cc(O)c3c2=O)cc1 [BIOCHANIN] | >100 µM
30 | COc1ccc(-c2coc3cc(O)ccc3c2=O)cc1O [CALYCOSIN] | >100 µM
31 | O=c1c(-c2ccc(O)cc2)coc2cc(O)ccc12 [DAIDZEIN] | >100 µM
32 | COc1c(O)cc2c(c1O)C(=O)C[C@@H](c1ccccc1)O2 [DIHYDROOROXYLIN A] | >100 µM
33 | O=c1[nH]cc(F)c(=O)[nH]1 [FLUOROURACIL] | >100 µM
34 | COc1ccc(-c2coc3cc(O)ccc3c2=O)cc1 [FORMONONETIN] | >100 µM
35 | O=C1c2ccc(O)cc2O[C@H](c2ccc(O)cc2)[C@H]1O [GARBANZOL] | >100 µM
36 | O=C(/C=C/c1ccc(O)cc1)c1ccc(O)cc1O [ISOLIQUIRITIGENIN] | >100 µM
37 | O=C1C[C@@H](c2ccc(O)cc2)Oc2cc(O)ccc21 [LIQUIRTIGENIN] | >100 µM
38 | COc1ccc([C@H]2COc3cc(O)ccc3C2)c(OC)c1O [MUCRONULATOL] | >100 µM
39 | O=C1C[C@@H](c2ccc(O)cc2)Oc2cc(O)cc(O)c21 [NARINGENIN] | >100 µM
40 | CC(=O)O[C@H]1C(=O)[C@@]2(C)[C@H]([C@H](OC(=O)c3ccccc3)[C@]3(O)C[C@H](OC(=O)[C@H](O)[C@@H](NC(=O)c4ccccc4)c4ccccc4)C(C)=C1C3(C)C)[C@]1(OC(C)=O)CO[C@@H]1C[C@@H]2O [PACLITAXEL] | >100 µM
41 | COc1ccc(-c2coc3cc(O)cc(O)c3c2=O)cc1O [PRATENSEIN] | >100 µM
42 | COc1cc2c(cc1OC)[C@@H]1COc3cc(O)ccc3[C@@H]1O2 [SECUNDIFLOROL I] | >100 µM
43 | COc1cc([C@H]2OC[C@H]3[C@@H]2CO[C@@H]3c2cc(OC)c(O)c(OC)c2)cc(OC)c1O [SYRINGARESINOL] | >100 µM
44 | COc1ccc(-c2coc3cc(O)ccc3c2=O)c(O)c1 [XENOGNOSIN B] | >100 µM
